{
  "source": "paper PMC10973839",
  "about": "“CHF6297: a novel potent and selective p38 MAPK inhibitor with robust anti-inflammatory activity and suitable for inhaled pulmonary administration as dry powder” (Frontiers in Pharmacology, 2024)",
  "key": {"[1]": {"tested_on": "LPS-induced neutrophil influx in BALF", "assay": "LPS-induced BALF neutrophilia in rats"}, "[2]": {"assay": "Inhalation pharmacokinetics in rats", "format": "in vivo, male Wistar rats", "conditions": "for Lung Cmax: 30-min nose-only inhalation; for Plasma Tmax: IAD: immediately after dosing; for Lung Tmax: IAD: immediately after dosing (5 min after end of exposure); for half-life: lung, read-out: Lung t1/2 (converted); for Cmax / AUC(0-t): plasma; for AUC(0-t): read-out: Plasma AUClast", "procedure": "Inhalation pharmacokinetics (PK) of CHF6297 as micronised dry powder blended with lactose 20% w/w was investigated in male Wistar rats at 2 dose levels (0.1 and 1 mg/kg) using the nose-only inhalation delivery system (Figure 8). For each PK study, 21 rats were placed in suitable plastic restrainers and connected to the inhalation tower. Inhalation system parameters were set to achieve a nominal dose of 0.1 mg/kg and 1 mg/kg in 30 min of exposure. The particle size and actual dose are given in Supplementary Material (Table 2). At the end of the inhalation period, the animals were returned to their cages. […] Then, lung samples were immediately excised, externally washed with cold saline, accurately weighed, homogenized using a temperature-controlled Precellys homogenizer (Bertin Technologies, France), and stored at −80 °C until analysis.\nPlasma and lung samples were analyzed by using an HPLC-MS/MS system, consisting of a 4000 QTRAP mass spectrometer (AB Sciex LLC, Framingham, MA, United States) with an electrospray ionization (ESI) source, coupled to an Agilent 1100 HPLC (Agilent Technologies, Santa Clara, CA, United States). Analyte separation was performed using a Gemini C18 column (Phenomenex Inc., Torrance, CA, United States) and water with 0.1% v/v AcOH in the gradient with acetonitrile with 0.1% v/v AcOH as eluents. Sample preparation was performed by protein precipitation using preassembled filtration devices (Mini-UniPrep Syringeless Filters, 0.45 µm PTFE, Whatman, GE Healthcare, Buckinghamshire, United Kingdom). Aliquots of 50 μL of the sample (plasma or homogenate) were transferred to the bottom part of the device, spiked with 10 μL of the appropriate internal standard solution, and 150 μL of acetonitrile was added. The calibration and quality control samples were prepared by adding 10 µL of the CHF6297 working standard solution in acetonitrile to 50 µL of the blank matrix. After vortex mixing, the obtained mixture was filtered by manual compression of the device, and the filtered solution was diluted with 100 μL of water. The Mini-UniPrep devices were directly placed in the autosampler rack of the HPLC system. Pharmacokinetic evaluation and parameter determination (Cmax, Tmax, AUClast, and t1/2) were performed with Phoenix 64 software (Certara, New Jersey, United States) using non-compartmental analysis. Since the actual dose was within ±5% of the nominal one, the nominal dose was used for PK calculation."}, "[3]": {"tested_on": "BEAS-2B", "assay": "TNF-α-evoked IL-8 release", "format": "cell-based, human", "conditions": "TNF-α 1 ng/mL; compared with the CSE-evoked assay"}, "[4]": {"tested_on": "IL-1β-induced neutrophil influx and IL-6 in BALF", "assay": "IL-1β-induced neutrophilia and IL-6 accumulation in BALF of rats", "format": "in vivo", "conditions": "for ED50: Rattus norvegicus, Neutrophil", "procedure": "IL-1β is a potent proinflammatory agent that markedly induces lung neutrophilia when administered intratracheally in rats, and p38α MAPK is involved in IL-1β signaling in lung cells ([Laporte et al., 2000]). The dose–response curve and anti-inflammatory duration of action studies were carried out by delivering CHF6297 intratracheally through the DP-4M PennCentury insufflator as micronized dry powder (blended with lactose) at the doses of 0.1, 0.35, and 1 mg/kg, 1 h or 24 h before IL-1β challenge. Four hours after IL-1β challenge, BALF was collected for cell counting and IL-6 quantification.\nFor the experimental studies performed with IL-1β challenge, the first aliquot of BALF was centrifuged separately: the resulting supernatant was frozen at −80°C for IL-6 ELISA analysis.\nFrozen cell-free BALFs were analyzed using an ELISA kit purchased from R&D Systems (Rat IL-6 ELISA Kit; Cat. No. SR6000B, Lot. 307537), according to the manufacturer’s instructions."}, "[5]": {"molecular_target": "T1, human p38δ (Homo sapiens, UniProt O15264)", "T1 construct": "GST; purchased Invitrogen", "T1 sequence (O15264 1-365)": "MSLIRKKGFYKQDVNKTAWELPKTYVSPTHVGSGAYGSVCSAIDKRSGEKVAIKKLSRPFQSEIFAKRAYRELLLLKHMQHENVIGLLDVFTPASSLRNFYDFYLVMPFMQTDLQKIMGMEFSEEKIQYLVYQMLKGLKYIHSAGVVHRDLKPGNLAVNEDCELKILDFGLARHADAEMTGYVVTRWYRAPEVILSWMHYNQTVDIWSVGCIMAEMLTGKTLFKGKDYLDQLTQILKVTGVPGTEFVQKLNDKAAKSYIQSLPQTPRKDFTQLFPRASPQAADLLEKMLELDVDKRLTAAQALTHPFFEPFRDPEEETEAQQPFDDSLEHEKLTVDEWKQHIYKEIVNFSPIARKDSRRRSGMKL", "assay": "KINOMEscan competition binding assay (DiscoverX), p38δ", "conditions": "read-out: Kd (mean ± s.d.)", "from_the_text": "The KINOMEscan® platform (DiscoverX) was used, which uses a novel and proprietary active site-directed competition binding assay to quantitatively measure the interactions between human p38 isoforms and the target compound."}, "[6]": {"conditions": "male, Wistar, rat, inhaled or intranasal, 0.1 mg/kg"}, "[7]": {"conditions": "male, Wistar, rat, inhaled or intranasal, 1.0 mg/kg"}, "[8]": {"conditions": "0.35 mg/kg i.t., 24 h before IL-1β"}, "[9]": {"conditions": "1 mg/kg i.t., 24 h before IL-1β"}},
  "note": "Where two headings read alike, the source gives them in different places.",
  "data": [
    {"smiles": "C[C@H]1CCCCN1c1nnc2ccc(O[C@@H]3CC[C@H](NC(=O)Nc4cc(C(C)(C)C)nn4-c4cnn(CCN(C)C)c4)c4ccccc43)cn12", "note": "[CHF6297]", "values": [
      {"measurement": "neutrophils in BALF", "setting": "[1]; 0.1 mg/kg nose-only dry powder, 1 h before LPS, BALF 4 h after challenge", "result": "1.18 × 10^6 ± 0.27 × 10^6 neutrophils"},
      {"measurement": "neutrophils in BALF", "setting": "[1]; 0.1 mg/kg nose-only dry powder, 24 h before LPS", "result": "1.9 × 10^6 ± 0.3 × 10^6 neutrophils"},
      {"measurement": "neutrophils in BALF", "setting": "[1]; 1 mg/kg nose-only dry powder, 1 h before LPS, BALF 4 h after challenge", "result": "0.7 × 10^6 ± 0.12 × 10^6 neutrophils"},
      {"measurement": "neutrophils in BALF", "setting": "[1]; 1 mg/kg nose-only dry powder, 24 h before LPS", "result": "1.45 × 10^6 ± 0.19 × 10^6 neutrophils"},
      {"measurement": "ED50", "setting": "[1]; Rattus norvegicus, Neutrophil, read-out: ED50, inhibition of pulmonary neutrophilia", "result": 0.064, "unit": "mg/kg"},
      {"measurement": "Lung AUClast", "setting": "[2]; 0.1 mg/kg", "result": "42,097 h*ng/g"},
      {"measurement": "Lung Cmax", "setting": "[2]; 0.1 mg/kg", "result": "7,187 ng/g"},
      {"measurement": "Plasma Tmax", "setting": "[2]; 0.1 mg/kg", "result": "IAD"},
      {"measurement": "Lung Tmax", "setting": "[2]; 0.1 mg/kg", "result": "IAD"},
      {"measurement": "Lung Cmax", "setting": "[2]; 1.0 mg/kg", "result": "54,000 ng/g"},
      {"measurement": "Plasma Tmax", "setting": "[2]; 1.0 mg/kg", "result": "IAD"},
      {"measurement": "Lung Tmax", "setting": "[2]; 1.0 mg/kg", "result": "IAD"},
      {"measurement": "half-life", "setting": "[2]; [6]", "result": 10.2, "unit": "h"},
      {"measurement": "half-life", "setting": "[2]; [7]", "result": 10.2, "unit": "h"},
      {"measurement": "half-life", "setting": "[2]; male, Wistar, rat, inhaled, 0.1 mg/kg", "result": 10, "unit": "h"},
      {"measurement": "half-life", "setting": "[2]; male, Wistar, rat, inhaled, 1.0 mg/kg", "result": 10, "unit": "h"},
      {"measurement": "Kp", "setting": "[2]; male, Wistar, rat, lung/plasma, inhaled, at the two dose levels (0.1 and 1 mg/kg), read-out: lung/plasma ratio (AUClast lung / AUClast plasma)", "result": "~6000"},
      {"measurement": "Cmax", "setting": "[2]; [6]", "result": 2.77, "unit": "ng/mL"},
      {"measurement": "AUC(0-t)", "setting": "[2]; [6]", "result": 7.32, "unit": "ng·h/mL"},
      {"measurement": "Cmax", "setting": "[2]; [7]", "result": 20.6, "unit": "ng/mL"},
      {"measurement": "AUC(0-t)", "setting": "[2]; [7]", "result": 60.1, "unit": "ng·h/mL"},
      {"measurement": "potency against IL-8 release evoked by TNF-α", "setting": "[3]", "result": "comparable potency"},
      {"measurement": "IL-6 concentration in BAL fluid", "setting": "[4]; 0.1 mg/kg i.t., 1 h before IL-1β", "result": "791 ± 131", "unit": "pg/mL"},
      {"measurement": "IL-6 concentration in BAL fluid", "setting": "[4]; 0.35 mg/kg i.t., 1 h before IL-1β", "result": "302 ± 58.34", "unit": "pg/mL"},
      {"measurement": "IL-6 concentration in BAL fluid", "setting": "[4]; [8]", "result": "1,101 ± 253 pg/mL"},
      {"measurement": "neutrophils in BALF", "setting": "[4]; [8]", "result": "5.5 × 10^6 ± 814 neutrophils"},
      {"measurement": "neutrophils in BALF", "setting": "[4]; 1 mg/kg i.t. dry powder, 1 h before IL-1β", "result": "2.3 × 10^6 ± 234 neutrophils"},
      {"measurement": "IL-6 concentration in BAL fluid", "setting": "[4]; 1 mg/kg i.t., 1 h before IL-1β", "result": "404 ± 108", "unit": "pg/mL"},
      {"measurement": "IL-6 concentration in BAL fluid", "setting": "[4]; [9]", "result": "337 ± 84", "unit": "pg/mL"},
      {"measurement": "neutrophils in BALF", "setting": "[4]; [9]", "result": "2.98 × 10^6 ± 62 neutrophils"},
      {"measurement": "ED50", "setting": "[4]; i.t. dry powder, 1 h before IL-1β, read-out: ED50, IL-1β-induced neutrophil influx", "result": 0.22, "unit": "mg/kg"},
      {"measurement": "ED50", "setting": "[4]; i.t., IL-1β challenge, read-out: ED50, increase in IL-6 levels in BALF", "result": 0.82, "unit": "mg/kg"},
      {"measurement": "Kd", "setting": "[5]", "result": "> 1", "unit": "µM"}
    ]}
  ]
}
